In article PMC9428149, “Tackling recalcitrant Pseudomonas aeruginosa infections in critical illness via anti-virulence monotherapy” (Nature Communications, 2022):
Values joined by “and” are separate entries in the source; they are usually repeats but may differ in a detail not shown here. Equal entries are not always repeated. “Also recorded” adds a separate entry of the source. Where two headings read alike, the source gives them in different places.

Assays:
PA14 burn-site infection [1] = experiment: In vivo intestinal permeability (FITC-dextran) in burn-site infection model; design: species or system mouse
TNF-α = experiment: Ileal TNF-α ELISA; type: in vivo, mouse; settings: burn + PA14 + D88, 22 h
Experimental: (§1) For the group supplemented with our MvfR-inhibiting compound (D88), mice received five subcutaneous injections (at the nape of the animals) at 1, 4, 8, 12, and 18 h post-BI, at a dose of 24 mg kg^−1 body weight. D88 was prepared in a 40% Captisol vehicle. Control groups received equivalent doses of 40% Captisol vehicle.
(§2) Distal ileal TNF-α and IL-6 were quantified using the mouse TNF-α enzyme-linked immunosorbent assay [ELISA] Ready-SET-Go kit (eBioscience; San Diego, CA, USA) and the Mouse IL-6 DuoSet ELISA (R&D Systems) respectively, as per the manufacturer’s instructions.

IL-6 = experiment: Ileal IL-6 ELISA; type: in vivo, mouse; settings: burn + PA14 + D88, 22 h
Experimental: as §1, §2

Caco-2 cells = experiment: MTT cytotoxicity, Caco-2; type: cell-based, human; settings: for Cell viability (MTT) relative to Vehicle: Caco-2, replicates
Experimental: (§3) For the determination of cytotoxicity, cell viability was determined using the MTT (3-[4, 5-dimethyl-2-thiazolyl]−2, 5-diphenyl-2H-tetrazolium bromide) assay in the presence and absence of compound (D88). […] The cells were then treated with either vehicle or different concentrations of D88 (10, 20, 30, 40, and 50 µM) for 24 h at 37 °C and 5% CO2. After 24 h, the cells were washed three times with PBS and were incubated in 200 μL PBS containing 200 μg mL^−1 MTT (Sigma-Aldrich) in a 96-well culture plate for 2 h at 37 °C and 5% CO2. Following incubation, the supernatant was discarded, and the cells were lysed in 95% isopropanol and 5% formic acid.

[2] = DMPK of D88 in mice (plasma); type: in vivo, mouse; settings: for half-life: read-out: half-life (T ½) (converted)
Experimental: Experiments were conducted by Aptuit (Verona) S.rl, an Evotec Company in Italy. Six weeks old male CD-1 mice were obtained from Charles River Laboratories, Italy. Mice were maintained on a 12 h light cycle with ad libitum access to rodent feed and water.
Healthy animals received IV 1.0 mg kg^−1 or SC administration of the 10.2 mg kg^−1 in homogeneous suspension in 0.5 % HPMC in water at the volume of 1.7 mL kg^−1. Following administration, blood samples were collected under deep isoflurane anesthesia from the cava vein of each mouse into tubes with K3EDTA, thoroughly but gently mixed, and placed on wet ice. Within 0.5 h of collection, blood was centrifuged (2500 g for 10 min at 4 °C) and within 0.5 h, aliquots of plasma were transferred into appropriately labeled sample tubes. A first 20 µL aliquot were mixed with 80 µL of Hepes 0.1 N. A second 5 µL aliquot of plasma was added to a well plate for urea quantification without dilution. Plasma samples were processed using a method based on protein precipitation with acetonitrile followed by HPLC/MS-MS analysis with an optimized analytical method.

RAW 264.7 cells = experiment: MTT cytotoxicity, RAW 264.7; type: cell-based, mouse; settings: for Cell viability (MTT) relative to Vehicle: RAW 264.7, replicates
Experimental: as §3

Hep G2 cells = experiment: MTT cytotoxicity, Hep G2; type: cell-based, human; settings: for Cell viability (MTT) relative to Vehicle: Hep G2, replicates
Experimental: as §3

claudin-1 = experiment: Tight junction claudin-1 immunofluorescence, distal ileum; type: in vivo, mouse;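 as to Claudin-1 immunofluorescence quantification (Supplimentary Figure 9): fluorescence intensity in arbitrary units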
Experimental: as §1
Samples of distal ileum fixed with 4% paraformaldehyde were cut in sections and mounted on microscope slides. After deparaffinization and antigen retrieval (Antigen Retrieval reagent; R&D Systems, Minneapolis, MN, USA), tissue sections were immersed in PBS/0.1 tween for 10 min and were blocked by Normal Goat Serum. They were then incubated with primary antibody rabbit polyclonal anti-claudin-1 (Catalog# 71-7800; final concentration, 1:100; Invitrogen, Rockford, IL, USA) overnight in a humid chamber at 4 °C. The sections were washed three times with PBS and secondary antibody goat anti-rabbit (Catalog# ab150061; final concentration: 1:500; Abcam, Cambridge, MA, USA) and DAPI (Catalog# ab228549; Abcam, Cambridge, MA, USA) were added, and incubated 1 h at room temperature. The sections were then washed three times with PBS, dried, and mounted, and images were collected using a confocal microscope (Nikon ECLIPSE Ti2; NIS-Elements AR 5.21.03; Nikon Instruments Inc., Tokyo, Japan).

PA14 burn-site infection [3] = experiment: Bacterial dissemination and load (CFU) in burn-site infection model; type: in vivo, mouse
[4] = male, CD-1, mouse, 1 mg/kg IV, plasma
[5] = male, CD-1, mouse, 10 mg/kg SC, plasma

SMILES: N#Cc1ccc(NC(=O)C(F)C(=O)Nc2ccc(Oc3ccccc3)cc2)cc1 (centres unmarked) [D88]
- mean FITC-dextran in serum (PA14 burn-site infection [1]; burn + PA14 infection, D88 24 mg kg^−1 SC x5, 22 h): 2759 ng/mL
- mean FITC-dextran in serum (PA14 burn-site infection [1]; burn alone without infection, D88-treated, 22 h): 850 ng/mL
- intestinal permeability status (PA14 burn-site infection [1]; mvfR mutant-infected mice treated with D88 vs no treatment or vehicle): no difference in the intestinal permeability status
- mean ileal TNF-α level (TNF-α): 381 pg mL^−1 g^−1 tissue
- ileal IL-6 level (IL-6): marked decrease
- cell viability (Caco-2 cells; Caco-2, 10-50 µM, 24 h): None of the used compound concentrations exerted any cytotoxic effect; also recorded: no significant changes in cell viability
- Cell viability (MTT) relative to Vehicle (Caco-2 cells; 10 μM): 100.58 and 104.90 and 98.04 and 98.93 and 106.77 and 103.03
- Cell viability (MTT) relative to Vehicle (Caco-2 cells; 20 μM): 88.76 and 107.49 and 114.33 and 95.92 and 103.96 and 102.97
- Cell viability (MTT) relative to Vehicle (Caco-2 cells; 30 μM): 90.12 and 104.03 and 109.17 and 85.43 and 91.84 and 104.53
- Cell viability (MTT) relative to Vehicle (Caco-2 cells; 40 μM): 102.40 and 93.65 and 104.99 and 92.78 and 93.27 and 104.68
- Cell viability (MTT) relative to Vehicle (Caco-2 cells; 50 μM): 105.69 and 94.78 and 111.93 and 95.33 and 96.54 and 98.13
- Clast ([2]; 1 mg/kg IV, plasma): 14.2 ng/mL
- Clast ([2]; 10 mg/kg SC, plasma): 66.6 ng/mL
- Concentration ([2]; IV Injection 1mg/kg, Time 0.08 h, individual animals, 1 mg/kg): 648 ng/mL and 1150 ng/mL and 1460 ng/mL
- Concentration ([2]; IV Injection 1mg/kg, Time 0.33 h, individual animals, 1 mg/kg): 210 ng/mL and 298 ng/mL and 486 ng/mL
- Concentration ([2]; IV Injection 1mg/kg, Time 0.67 h, individual animals, 1 mg/kg): 77.1 ng/mL and 131 ng/mL
- Concentration ([2]; IV Injection 1mg/kg, Time 1 h, individual animals, 1 mg/kg): 10.9 ng/mL and 25.8 ng/mL and 57.4 ng/mL
- Concentration ([2]; SC Injection 10mg/kg, Time 0.08 h, individual animals, 10 mg/kg): 491 ng/mL and 600 ng/mL and 954 ng/mL and 1250 ng/mL
- Concentration ([2]; SC Injection 10mg/kg, Time 0.33 h, individual animals, 10 mg/kg): 712 ng/mL and 1020 ng/mL and 1060 ng/mL and 1590 ng/mL
- Concentration ([2]; SC Injection 10mg/kg, Time 0.67 h, individual animals, 10 mg/kg): 581 ng/mL and 875 ng/mL and 940 ng/mL and 1190 ng/mL
- Concentration ([2]; SC Injection 10mg/kg, Time 1 h, individual animals, 10 mg/kg): 513 ng/mL and 854 ng/mL and 838 ng/mL and 1070 ng/mL
- Concentration ([2]; SC Injection 10mg/kg, Time 2 h, individual animals, 10 mg/kg): 746 ng/mL and 683 ng/mL and 744 ng/mL
- Concentration ([2]; SC Injection 10mg/kg, Time 3.8 h, individual animals, 10 mg/kg): 90.5 ng/mL and 323 ng/mL and 480 ng/mL and 304 ng/mL
- Concentration ([2]; SC Injection 10mg/kg, Time 6 h, individual animals, 10 mg/kg): 21.9 ng/mL and 63.8 ng/mL and 101 ng/mL and 79.7 ng/mL
- concentration at 0.67 h ([2]; male, CD-1, mouse, plasma, iv, 1 mg/kg, IV Injection 1mg/kg, Time 0.67 h, individual animals): 76.4 ng/mL
- concentration at 2 h ([2]; male, CD-1, mouse, plasma, iv, 1 mg/kg, IV Injection 1mg/kg, Time 2 h, individual animals): 5.9 ng/mL
- concentration at 2 h ([2]; male, CD-1, mouse, plasma, sc, 10 mg/kg, SC Injection 10mg/kg, Time 2 h, individual animals): 443 ng/mL
- Cmax [2, 4]: 1090 ng/mL
- Tmax [2, 4]: 4.8 min
- half-life [2, 4]: 16.2 min
- Cmax [2, 5]: 1100 ng/mL
- Tmax [2, 5]: 19.8 min
- half-life [2, 5]: 75 min
- cell viability (RAW 264.7 cells; RAW 264.7, 10-50 µM, 24 h): None of the used compound concentrations exerted any cytotoxic effect; also recorded: no significant changes in cell viability
- Cell viability (MTT) relative to Vehicle (RAW 264.7 cells; 10 μM): 106.22 and 99.08 and 96.63 and 98.82 and 101.11 and 88.19
- Cell viability (MTT) relative to Vehicle (RAW 264.7 cells; 20 μM): 109.67 and 80.39 and 97.97 and 112.02 and 105.97 and 95.04
- Cell viability (MTT) relative to Vehicle (RAW 264.7 cells; 30 μM): 93.49 and 78.32 and 83.19 and 78.26 and 102.67 and 94.83
- Cell viability (MTT) relative to Vehicle (RAW 264.7 cells; 40 μM): 110.52 and 98.03 and 98.54 and 91.97 and 90.51 and 93.01
- Cell viability (MTT) relative to Vehicle (RAW 264.7 cells; 50 μM): 100.26 and 92.62 and 78.32 and 79.67 and 99.66 and 96.62
- cell viability (Hep G2 cells; Hep G2, 10-50 µM, 24 h): None of the used compound concentrations exerted any cytotoxic effect; also recorded: no significant changes in cell viability
- Cell viability (MTT) relative to Vehicle (Hep G2 cells; 10 μM): 91.32 and 107.98 and 99.70 and 117.35 and 109.09 and 100.19
- Cell viability (MTT) relative to Vehicle (Hep G2 cells; 20 μM): 95.30 and 117.21 and 108.45 and 112.28 and 97.33 and 109.75
- Cell viability (MTT) relative to Vehicle (Hep G2 cells; 30 μM): 92.58 and 115.65 and 108.60 and 112.37 and 92.39 and 103.33
- Cell viability (MTT) relative to Vehicle (Hep G2 cells; 40 μM): 107.42 and 114.93 and 105.81 and 114.05 and 107.35 and 99.51
- Cell viability (MTT) relative to Vehicle (Hep G2 cells; 50 μM): 91.19 and 110.82 and 100.96 and 118.91
- Claudin-1 immunofluorescence quantification (Supplimentary Figure 9) (claudin-1; PA14+D88 group, compare Sham, PA14+Vehicle, ΔmvfR, individual measurements): 148.508 and 162.001 and 157.541 and 137.39 and 152.028 and 182.597 and 148.327 and 116.923 and 109.707 and 109.463
- claudin-1 staining fluorescence intensity (claudin-1; ileum, PA14 infected + D88, 22 h): 142.48 AUs
- bacterial dissemination to the intestinal tissues (ileum and colon) (PA14 burn-site infection [3]; burn + PA14, D88, 22 h): significantly reduced
- bacterial load at the inoculation site (PA14 burn-site infection [3]; burn + infection, D88, 22 h): not affected
- bacterial load at the site of infection (CFUs) (PA14 burn-site infection [3]; infected and D88 treated animals): ~1 × 10^8
